Experimental data: PMC11421147 (Journal of Enzyme Inhibition and Medicinal Chemistry, 2024)

What was measured:
α-glucosidase = α-glucosidase (Saccharomyces cerevisiae, UniProt P53341); assay: α-Glucosidase inhibitory activity; format: biochemical
human sPLA2 hG-IIA = molecular target: T1, human sPLA2 hG-IIA (Homo sapiens, UniProt P14555); assay: Inhibition of sPLA2 activity; format: biochemical; conditions: IC50 ± standard deviation; for IC50: IC50 sPLA2(IIA)
T1 sequence (P14555 21-144): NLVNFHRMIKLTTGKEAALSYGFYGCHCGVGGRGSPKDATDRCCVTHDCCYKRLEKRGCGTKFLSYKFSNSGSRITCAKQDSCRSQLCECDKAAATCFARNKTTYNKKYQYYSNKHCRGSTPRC

[1] = tested on: human blood paraoxonase-1 (PON1); conditions: cited from earlier work

Sequence of α-glucosidase (P53341 whole entry): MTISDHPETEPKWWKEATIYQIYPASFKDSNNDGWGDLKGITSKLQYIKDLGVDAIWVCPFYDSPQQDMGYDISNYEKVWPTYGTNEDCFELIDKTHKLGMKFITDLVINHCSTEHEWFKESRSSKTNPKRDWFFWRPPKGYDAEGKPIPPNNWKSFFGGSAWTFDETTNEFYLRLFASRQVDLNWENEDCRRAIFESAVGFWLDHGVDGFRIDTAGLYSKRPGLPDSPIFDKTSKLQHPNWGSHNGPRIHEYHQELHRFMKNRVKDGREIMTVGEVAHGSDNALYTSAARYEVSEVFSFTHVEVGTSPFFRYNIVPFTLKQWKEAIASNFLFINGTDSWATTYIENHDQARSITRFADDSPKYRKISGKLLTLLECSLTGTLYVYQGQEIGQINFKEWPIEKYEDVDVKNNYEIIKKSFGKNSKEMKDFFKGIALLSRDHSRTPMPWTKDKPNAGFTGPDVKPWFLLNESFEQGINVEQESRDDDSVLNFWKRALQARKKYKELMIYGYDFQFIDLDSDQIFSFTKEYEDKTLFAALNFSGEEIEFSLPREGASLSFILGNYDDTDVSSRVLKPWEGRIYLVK

| IC50 (α-glucosidase) [nM] | IC50 (human sPLA2 hG-IIA) [nM] | IC50 sPLA2(IIA) (human sPLA2 hG-IIA) | Structure (SMILES) | type of inhibition of PON1 [1] |
| --- | --- | --- | --- | --- |
| 2790 ± 500 | 1520 ± 212 | – | Cc1ccc(S(=O)(=O)NNc2nc3ccccc3nc2Cl)cc1 [Compound 5b, N’-(3-chloroquinoxalin-2-yl)-4-methylbenzenesulfonohydrazide] | – |
| 29400 ± 532 | 2590 ± 292 | – | O=S(=O)(NNc1nc2ccccc2nc1Cl)c1ccc(C(F)(F)F)cc1 [Compound 5c, N’-(3-chloroquinoxalin-2-yl)-4-(trifluoromethyl) benzenesulfonohydrazide] | – |
| 3150 ± 32 | 47.5 ± 0.8 | – | O=S(=O)(NNc1nc2ccccc2nc1NNS(=O)(=O)c1ccccc1)c1ccccc1 [Compound 6a, N’,N’’’-(quinoxaline-2,3-diyl)dibenzenesulfonohydrazide] | – |
| 960 ± 112 | 76.5 ± 1.7 | – | Cc1ccc(S(=O)(=O)NNc2nc3ccccc3nc2NNS(=O)(=O)c2ccc(C)cc2)cc1 [Compound 6b, N’,N’’’-(quinoxaline-2,3-diyl)bis(4-methylbenzenesulfonohydrazide)] | – |

Continued, compound first:

| Structure (SMILES) | IC50 (α-glucosidase) [nM] | IC50 (human sPLA2 hG-IIA) [nM] | IC50 sPLA2(IIA) (human sPLA2 hG-IIA) | type of inhibition of PON1 [1] |
| --- | --- | --- | --- | --- |
| O=S(=O)(NNc1nc2ccccc2nc1Cl)c1ccc(Br)cc1 [Compound 5d, 4-Bromo-N’-(3-chloroquinoxalin-2-yl)benzenesulfonohydrazide] | 13300 ± 263 | 2120 ± 132 | – | – |
| O=S(=O)(NNc1nc2ccccc2nc1NNS(=O)(=O)c1ccc(C(F)(F)F)cc1)c1ccc(C(F)(F)F)cc1 [Compound 6c, N’,N’’’-(quinoxaline-2,3-diyl)bis(4-trifluoromethylbenzenesulfonohydrazide)] | 95.3 ± 5.4 | 2240 ± 1050 | – | – |
| O=S(=O)(NNc1nc2ccccc2nc1NNS(=O)(=O)c1ccc(Br)cc1)c1ccc(Br)cc1 [Compound 6d, N’,N’’’-(quinoxaline-2,3-diyl)bis(4-bromobenzenesulfonohydrazide)] | 8290 ± 367 | 4930 ± 241 | high micromolar | – |
| COc1ccc(OC)c(C(O)CNC(=O)CN)c1 (stereo not shown) [Midodrine] | – | – | – | competitive inhibition |
| CC(C)NCC(O)COc1ccc(CC(N)=O)cc1 (stereo not shown) [atenolol] | – | – | – | non-competitive inhibition |
| CC(C)(C)NCC(O)COc1cccc2c1CC(O)C(O)C2 (stereo not shown) [nadolol] | – | – | – | competitive inhibition |
| CC(C)NCC(O)COc1cccc2[nH]ccc12 (stereo not shown) [pindolol] | – | – | – | non-competitive inhibition |
